According to patent publication US11318110B2, “Pharmaceutical composition for reducing local fat and uses thereof” (Caliway Biopharmaceuticals Co., Ltd., priority 2015, dated 2022):

Key:
[1] = system: mature adipocytes (differentiated 3T3-L1 cells); assay: Apoptosis of mature adipocytes, annexin V/PI flow cytometry (Experiment 10-2); assay type: cell-based; details: 50 ppm total drug (complexes: 20 ppm curcumin + 30 ppm hydrophilic drug), 24 hours; sterile water control 0.8±0.4%
From the text: The curcumin cell culture medium: same as the preparation of the curcumin cell culture medium in Experiment 8-2. […] Caffeine (purchased from Sigma-Aldrich) was mixed with an appropriate amount of sterile water to obtain a caffeine solution. The caffeine solution was mixed with a cell culture medium to prepare the caffeine cell culture medium containing 50 ppm of caffeine. Wherein, the volume ratio of the caffeine cell culture medium and the cell culture medium was 1:1000. The L-carnitine cell culture medium: L-carnitine (purchased from Sigma-Aldrich) was mixed with an appropriate amount of sterile water to obtain a L-carnitine solution. The L-carnitine solution was mixed with a cell culture medium to prepare the caffeine cell culture medium containing 50 ppm of L-carnitine. Wherein, the volume ratio of the L-carnitine cell culture medium and the cell culture medium was 1:1000. The curcumin-caffeine complex cell culture medium: Curcumin and caffeine were mixed with an appropriate amount of sterile water to prepare a curcumin-caffeine complex solution. […] Wherein, the concentration of curcumin was 20 ppm, the concentration of caffeine was 30 ppm, and the volume ratio of the curcumin-caffeine complex solution and the cell culture medium was 1:1000. The curcumin-L-carnitine complex cell culture medium: Curcumin and L-carnitine were mixed with an appropriate amount of sterile water to prepare a curcumin-L-carnitine complex solution. […] Wherein, the concentration of curcumin was 20 ppm, the concentration of L-carnitine was 30 ppm, and the volume ratio of the curcumin-L-carnitine complex solution and the cell culture medium was 1:1000. […] Annexin V protein (purchased from eBioscience) and propidium iodide (PI; purchased from eBioscience) were mixed with the cells in each group for a period of time, and then the percentage of cells labeled by annexin V protein and PI in each group was analyzed by flow cytometry to assess the percentage of mature adipocytes undergoing apoptosis.

[2] = system: rat somatic cells except adipocytes; assay: Cytotoxicity test by MTT assay (Experiment 10-1); assay type: cell-based; details: 50 ppm
From the text: Determine if 50 ppm of caffeine and L-carnitine have toxicity to cells other than adipocytes by MTT assay. Only if the drug is deemed non-toxic will lipolysis test be proceeded.

[3] = system: lower inguinal subcutaneous fat of rats; assay: Administered dosage of curcumin-resveratrol complex composition, localized subcutaneous fat of rats (Experiment 7-5); assay type: in vivo; details: 0.04 μg/kg injected on days 1-4; 14-day experiment; high-fat diet control 100±15.2%
Method: LIPO-202 is a local lipolysis injection formulation currently undergoing clinical trials, and its main ingredient is salmeterol xinafonate. • (i) 1 mg of salmeterol xinafonate (purchased from Sigma-Aldrich) was mixed with an appropriate amount of methanol to a total volume of 1 mL to obtain a 1 mg/mL stock solution. • (ii) The stock solution was 10-fold serial diluted with sterile water to prepare a salmeterol xinafonate solution of a final concentration of 0.01 μg/mL, which is the LIPO-202 solution used in this experiment. same as the preparation of the curcumin-resveratrol complex solution comprising ELP described in Experiment 7-2. […] The rats were fed in the same manner described in Experiment 2. […] The LIPO-202 solution was injected to the lower inguinal subcutaneous fat layer of rats in the LIPO-202 group. […] The 1 mg/mL complex formula group: […] The 5 mg/mL complex formula group: The curcumin-resveratrol complex pharmaceutical composition was injected to the lower inguinal subcutaneous fat layer of rats in the 5 mg/mL complex formula group. […] The 10 mg/mL complex formula group: […] The 20 mg/mL complex formula group: […] Rats were injected once a day on day 1, 2, 3, and 4 of the experiment. The rats were fed with high-fat diet for the entire duration of the experiment. The experiment lasted for 14 days, and the rats were euthanized on day 15 by CO2.

[4] = system: mature adipocytes (differentiated 3T3-L1 cells); assay: Apoptosis of mature adipocytes, annexin V/PI flow cytometry (Experiment 8-2); assay type: cell-based; details: 50 ppm total drug (complexes: 20 ppm curcumin + 30 ppm second drug), 24 hours; DMSO control 0.8±0.2%
From the text: The curcumin cell culture medium: curcumin was mixed with an appropriate amount of 0.5% DMSO solution to obtain a curcumin solution. The curcumin solution was mixed with a cell culture medium (product name: Dulbecco's Modified Eagle Medium, purchased from Gibco) to prepare the curcumin cell culture medium containing 50 ppm of curcumin, wherein, the volume ratio between the curcumin solution and the cell culture medium was 1:1000. The puerarin cell culture medium: puerarin (purchased from Sigma-Aldrich) was mixed with an appropriate amount of 0.5% DMSO solution to obtain a puerarin solution. The puerarin solution was mixed with a cell culture medium to prepare the puerarin cell culture medium containing 50 ppm of puerarin, wherein, the volume ratio between the puerarin solution and the cell culture medium is 1:1000. The quercetin cell culture medium: quercetin (purchased from Sigma-Aldrich) was mixed with an appropriate amount of 0.5% DMSO solution to obtain a quercetin solution. The quercetin solution was mixed with a cell culture medium to prepare the quercetin cell culture medium containing 50 ppm of quercetin, wherein, the volume ratio between the quercetin solution and the cell culture medium was 1:1000. The synephrine cell culture medium: synephrine (purchased from Sigma-Aldrich) was mixed with an appropriate amount of 0.5% DMSO solution to obtain a synephrine solution. The synephrine solution was mixed with a cell culture medium to prepare the synephrine cell culture medium containing 50 ppm of synephrine, wherein, the volume ratio between the synephrine solution and the cell culture medium was 1:1000. The curcumin-puerarin complex cell culture medium: curcumin and puerarin were mixed with an appropriate amount of 0.5% DMSO solution to obtain a curcumin-puerarin complex solution. […] The curcumin-quercetin complex cell culture medium: curcumin and quercetin were mixed with an appropriate amount of 0.5% DMSO solution to obtain a curcumin-quercetin complex solution. […] Experimental procedure to determine the lipolysis efficacy on mature adipocytes The adipocyte precursors 3T3-L1 cells (purchased from the Food Industry Research and Development Institute, Taiwan; abbreviated as BCRC) were seeded in 12-well plates, such that each well contained 1×10^5 cells. […] Annexin V protein (purchased from eBioscience) and propidium iodide (PI; purchased from eBioscience) were mixed with the cells in each group for a period of time, and then the percentage of cells labeled by annexin V protein and PI in each group was analyzed by flow cytometry to assess the percentage of mature adipocytes undergoing apoptosis. […] The data were presented as mean±SD and analyzed by one-way ANOVA. […]

[5] = Dosing frequency of curcumin-resveratrol complex composition, body weight gain of rats (Experiment 7-4); assay type: in vivo; details: 10.3 mg/kg on days 1, 3, 5 (total 30.9 mg/kg); control 100.0±11.6%
Method: (§1) Preparation of the sodium deoxycholate solution: An appropriate amount of sodium deoxycholate was mixed with sterile water for injection to make the concentration of sodium deoxycholate 2.575 mg/mL. The solution was mixed well to obtain the sodium deoxycholate solution. Wherein, sodium deoxycholate (purchased from Sigma-Aldrich, cat #D6750) is the main ingredient of the local lipolysis injection formulation ATX-101 (brand name: KYBELLA®) in the market.
(§2) Preparation of the curcumin-resveratrol complex pharmaceutical composition: same as the preparation of the curcumin-resveratrol complex solution comprising ELP described in Experiment 7-2. Wherein, the total concentration of curcumin and resveratrol was 5 mg/mL, and the ratio of curcumin to resveratrol was 4:1.
(§3) The rats were randomly assigned into 4 groups, which were a high-fat diet control group, a sodium deoxycholate group, a high-dosing frequency curcumin-resveratrol group (abbreviated as high-dosing frequency group in this experiment), and a low-dosing frequency curcumin-resveratrol group (abbreviated as low-dosing frequency group in this experiment). The rats were fed in the same manner described in Experiment 2.
(§4) The sodium deoxycholate group: The sodium deoxycholate solution was injected to the lower inguinal subcutaneous fat layer of rats in the sodium deoxycholate group. […]

[6] = Dosing frequency of curcumin-green tea extract complex composition, body weight gain of rats (Experiment 9-2); assay type: in vivo; details: 10.3 mg/kg on days 1, 3, 5 (total 30.9 mg/kg); control 100.0±11.6%
Method: (§5) Preparation of the sodium deoxycholate solution: same as the preparation of the sodium deoxycholate solution in Experiment 7-4.
(§6) Preparation of the curcumin-green tea extract complex pharmaceutical composition: 0.8 g of curcumin was mixed with 150˜200 mL of dichloromethane and stirred at 150˜500 rpm to completely dissolve curcumin. 40 g of KOLLIPHOR® ELP (also known as CREMOPHOR® ELP, polyoxyl 35 castor oil, abbreviated as ELP) was added and stirred at 100˜300 rpm to volatilize dichloromethane. Once dichloromethane volatilized completely, normal saline for injection was slowly added to a total volume of 200 mL. Wherein, the normal saline for injection comprised 0.2 g of green tea extract. The solution was mixed well to obtain the curcumin-green tea extract complex solution comprising ELP. Said curcumin-green tea extract complex solution comprising ELP comprised drug-containing micelles, the total concentration of curcumin and green tea was 5 mg/mL, and the weight ratio of curcumin and green tea extract was 4:1
as §3, with “curcumin-green tea extract” for “curcumin-resveratrol”, “group). […]” for “group in this experiment). The rats were fed in the same manner described in Experiment 2.”

[7] = system: lower inguinal subcutaneous fat of rats; assay: Dosing frequency of curcumin-resveratrol complex composition, localized subcutaneous fat of rats (Experiment 7-4); assay type: in vivo; details: 10.3 mg/kg on days 1, 3, 5 (total 30.9 mg/kg); 20-day experiment; control 100.0±22.6%
Method: as §1, §2, §3, §4

[8] = system: lower inguinal subcutaneous fat of rats; assay: Dosing frequency of curcumin-green tea extract complex composition, localized subcutaneous fat of rats (Experiment 9-2); assay type: in vivo; details: 10.3 mg/kg on days 1, 3, 5 (total 30.9 mg/kg); 20-day experiment; control 100.0±22.6%
Method: as §5, §6
as §3, with “curcumin-green tea extract” for “curcumin-resveratrol”, “group). […]” for “group in this experiment). The rats were fed in the same manner described in Experiment 2.”

Row | Compound | percentage of apoptotic cells [1] [%] | percentage of apoptotic cells [4] [%] | further results
1 | C[N+](C)(C)C[C@H](O)CC(=O)[O-] [L-carnitine] | 1.7±0.5 | – | cytotoxicity (MTT assay) [2]: not cytotoxic
2 | OCc1cc(C(O)CNCCCCCCOCCCCc2ccccc2)ccc1O (centres unmarked) [LIPO-202, salmeterol xinafonate] | – | – | relative weight of the lower inguinal subcutaneous fat [3]: 97.8±12.8%
3 | Cn1c(=O)c2c(ncn2C)n(C)c1=O [caffeine] | 2.0±1.7 | – | cytotoxicity (MTT assay) [2]: not cytotoxic
4 | COc1cc(/C=C/C(=O)CC(=O)/C=C/c2ccc(O)c(OC)c2)ccc1O [curcumin] | 78.4±5.4 | 78.4±5.4 | –
5 | O=c1c(-c2ccc(O)cc2)coc2c([C@@H]3O[C@H](CO)[C@@H](O)[C@H](O)[C@H]3O)c(O)ccc12 [puerarin] | – | 2.0±1.6 | –
6 | O=c1c(O)c(-c2ccc(O)c(O)c2)oc2cc(O)cc(O)c12 [quercetin] | – | 1.8±0.6 | –
7 | CNCC(O)c1ccc(O)cc1 (centres unmarked) [synephrine] | – | 0.9±0.2 | –
8 | sodium deoxycholate | – | – | relative weight gain [5]: 100.2±12.6%; relative weight gain [6]: 100.2±12.6%; relative weight of the lower inguinal subcutaneous fat [7]: 88.8±16.7%; relative weight of the lower inguinal subcutaneous fat [8]: 88.8±16.7%
